Measurements as given in ChEMBL document CHEMBL4477234, “Potent Suppressive Effects of 1-Piperidinylimidazole Based Novel P2X7 Receptor Antagonists on Cancer Cell Migration and Invasion” (J Med Chem, 2016).
Activity calls are given as the source filed them. The rule behind the calls is not given here.

Legend:
P2X purinoceptor 3 [1] = molecular target: T1, P2X purinoceptor 3 (Homo sapiens, UniProt P56373); experiment: Antagonist activity at human P2X3 receptor expressed in human 1321N1 cells assessed as inhibition of ATP-induced calcium influx preincubated for 30 mins prior to ATP-stimulation by calcium influx assay; assay type: cell-based
T1 sequence (P56373 whole entry): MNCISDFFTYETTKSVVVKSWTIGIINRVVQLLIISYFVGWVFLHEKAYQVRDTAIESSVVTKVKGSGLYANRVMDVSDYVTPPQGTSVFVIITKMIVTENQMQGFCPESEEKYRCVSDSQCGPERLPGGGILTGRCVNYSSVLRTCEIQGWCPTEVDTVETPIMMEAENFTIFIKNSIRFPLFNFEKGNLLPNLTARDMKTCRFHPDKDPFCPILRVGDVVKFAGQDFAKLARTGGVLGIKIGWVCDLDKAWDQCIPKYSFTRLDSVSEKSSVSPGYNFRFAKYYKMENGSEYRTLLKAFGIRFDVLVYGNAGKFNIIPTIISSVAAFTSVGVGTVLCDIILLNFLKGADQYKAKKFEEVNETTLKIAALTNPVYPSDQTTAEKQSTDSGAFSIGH

P2X purinoceptor 3 [2] = molecular target: T2, P2X purinoceptor 3 (Rattus norvegicus, UniProt P49654); experiment: Antagonist activity at P2X3 receptor in Wistar rat DRG neurons assessed as inhibition of alpha/beta-meATP-induced currents preincubated for 5 mins prior to alpha/beta-meATP-stimulation measured at every sec for 5 mins by whole cell patch-clamp assay
T2 sequence (P49654 whole entry): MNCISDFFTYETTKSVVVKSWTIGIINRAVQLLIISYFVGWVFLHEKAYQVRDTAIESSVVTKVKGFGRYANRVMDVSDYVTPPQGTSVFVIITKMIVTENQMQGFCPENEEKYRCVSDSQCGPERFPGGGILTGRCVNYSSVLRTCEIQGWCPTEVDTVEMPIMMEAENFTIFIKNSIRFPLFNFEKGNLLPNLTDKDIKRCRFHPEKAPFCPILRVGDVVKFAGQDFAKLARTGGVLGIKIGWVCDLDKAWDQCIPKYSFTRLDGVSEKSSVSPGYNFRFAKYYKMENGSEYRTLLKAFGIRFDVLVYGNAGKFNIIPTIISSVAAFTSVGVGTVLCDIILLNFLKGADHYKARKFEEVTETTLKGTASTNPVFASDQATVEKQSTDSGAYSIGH

P2X purinoceptor 7 [3] = molecular target: T3, P2X purinoceptor 7 (Homo sapiens, UniProt Q99572); experiment: Antagonist activity at human P2X7 receptor expressed in HEK293 cells assessed as inhibition of BzATP-induced EtBr uptake measured after 2 hrs by fluorescence analysis; assay type: cell-based
T3 sequence (Q99572 whole entry): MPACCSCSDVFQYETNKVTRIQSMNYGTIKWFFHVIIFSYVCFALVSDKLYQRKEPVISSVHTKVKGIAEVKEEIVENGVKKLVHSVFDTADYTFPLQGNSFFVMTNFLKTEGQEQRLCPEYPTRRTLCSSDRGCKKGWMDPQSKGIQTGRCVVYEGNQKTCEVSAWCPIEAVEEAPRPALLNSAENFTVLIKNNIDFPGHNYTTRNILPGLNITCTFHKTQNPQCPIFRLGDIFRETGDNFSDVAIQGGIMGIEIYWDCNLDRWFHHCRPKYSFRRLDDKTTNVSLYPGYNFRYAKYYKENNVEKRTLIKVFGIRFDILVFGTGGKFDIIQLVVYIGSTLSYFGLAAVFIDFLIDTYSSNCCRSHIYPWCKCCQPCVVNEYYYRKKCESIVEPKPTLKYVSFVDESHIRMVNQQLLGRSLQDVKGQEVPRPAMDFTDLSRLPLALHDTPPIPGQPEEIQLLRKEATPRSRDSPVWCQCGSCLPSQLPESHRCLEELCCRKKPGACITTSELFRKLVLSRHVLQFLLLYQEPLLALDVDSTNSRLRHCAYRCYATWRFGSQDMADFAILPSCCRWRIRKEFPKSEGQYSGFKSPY

P2X purinoceptor 7 [4] = molecular target: T3, P2X purinoceptor 7; experiment: Antagonist activity at human P2X7 receptor in LPS/IFN-gamma-differentiated human THP-1 cells assessed as suppression of BzATP-stimulated IL-1beta release per-incubated for 30 mins before BzATP addition and measured after 30 mins by ELISA; assay type: cell-based
[5] = molecular target: T4, P2X purinoceptor 1 (Homo sapiens) (UniProt P51575); experiment: Antagonist activity at human P2X1 receptor expressed in human 1321N1 cells assessed as inhibition of ATP-induced calcium influx at 1 uM preincubated for 30 mins prior to ATP-stimulation by calcium influx assay; assay type: cell-based
T4 sequence (whole entry): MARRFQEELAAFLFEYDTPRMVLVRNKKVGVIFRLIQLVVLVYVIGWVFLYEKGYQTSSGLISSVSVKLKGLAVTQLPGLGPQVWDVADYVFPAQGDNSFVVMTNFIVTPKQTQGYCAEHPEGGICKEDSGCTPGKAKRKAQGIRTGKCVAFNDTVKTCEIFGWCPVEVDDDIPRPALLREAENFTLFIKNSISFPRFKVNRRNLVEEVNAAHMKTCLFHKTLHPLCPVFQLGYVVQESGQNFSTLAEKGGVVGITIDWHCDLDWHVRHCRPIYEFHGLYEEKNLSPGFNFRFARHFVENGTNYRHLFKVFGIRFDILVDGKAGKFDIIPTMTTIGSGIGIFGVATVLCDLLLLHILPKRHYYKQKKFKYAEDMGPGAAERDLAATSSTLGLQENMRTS

[6] = molecular target: T5, P2X purinoceptor 2 (Homo sapiens) (UniProt Q9UBL9); experiment: Antagonist activity at human P2X2 receptor expressed in human 1321N1 cells assessed as inhibition of ATP-induced calcium influx at 1 uM preincubated for 30 mins prior to ATP-stimulation by calcium influx assay; assay type: cell-based
T5 sequence (whole entry): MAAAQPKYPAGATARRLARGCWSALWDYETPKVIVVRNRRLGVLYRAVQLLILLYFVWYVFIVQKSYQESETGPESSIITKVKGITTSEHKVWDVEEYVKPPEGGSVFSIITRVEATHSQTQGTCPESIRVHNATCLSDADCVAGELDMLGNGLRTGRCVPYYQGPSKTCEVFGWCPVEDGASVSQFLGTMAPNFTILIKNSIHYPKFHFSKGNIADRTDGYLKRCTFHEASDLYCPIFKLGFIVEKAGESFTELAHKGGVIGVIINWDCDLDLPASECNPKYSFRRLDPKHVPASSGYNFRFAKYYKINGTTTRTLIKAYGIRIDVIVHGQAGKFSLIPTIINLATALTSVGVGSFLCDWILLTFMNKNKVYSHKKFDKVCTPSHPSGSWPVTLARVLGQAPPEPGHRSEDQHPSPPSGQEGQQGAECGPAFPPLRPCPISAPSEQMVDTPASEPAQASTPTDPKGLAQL

[7] = molecular target: T6, P2X purinoceptor 3 (Homo sapiens) (UniProt P56373); experiment: Antagonist activity at human P2X3 receptor expressed in human 1321N1 cells assessed as inhibition of ATP-induced calcium influx at 1 uM preincubated for 30 mins prior to ATP-stimulation by calcium influx assay; assay type: cell-based
T6 sequence (whole entry): T1 sequence (P56373 whole entry)

[8] = molecular target: T7, P2X purinoceptor 4 (Homo sapiens) (UniProt Q99571); experiment: Antagonist activity at human P2X4 receptor expressed in human 1321N1 cells assessed as inhibition of ATP-induced calcium influx at 1 uM preincubated for 30 mins prior to ATP-stimulation by calcium influx assay; assay type: cell-based
T7 sequence (whole entry): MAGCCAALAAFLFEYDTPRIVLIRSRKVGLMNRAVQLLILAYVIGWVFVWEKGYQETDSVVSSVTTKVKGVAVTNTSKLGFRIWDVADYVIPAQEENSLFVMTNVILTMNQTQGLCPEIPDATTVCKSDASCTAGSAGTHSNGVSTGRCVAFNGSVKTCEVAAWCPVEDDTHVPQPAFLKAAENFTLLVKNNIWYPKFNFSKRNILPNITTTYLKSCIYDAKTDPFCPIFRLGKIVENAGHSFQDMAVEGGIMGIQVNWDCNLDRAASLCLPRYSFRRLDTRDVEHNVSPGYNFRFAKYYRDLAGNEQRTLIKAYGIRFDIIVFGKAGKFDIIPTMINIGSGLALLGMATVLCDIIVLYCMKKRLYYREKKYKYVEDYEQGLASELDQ

MDA-MB-231 [9] = experiment: Antimigratory activity against human MDA-MB-231 cells xenografted in zebrafish assessed as inhibition of cell dissemination and invasion at 10 uM measured after 4 days by fluorescence microscopic analysis relative to control; assay type: functional, cell-based
Homo sapiens = organism: Homo sapiens; experiment: Selectivity ratio, ratio of IC50 for human P2X3 receptor expressed in human 1321N1 cells to human P2X7 receptor expressed in HEK293 cells; assay type: cell-based
MDA-MB-231 [10] = experiment: Antiinvasive activity against human MDA-MB-231 cells measured after 48 hrs by transwell invasion assay; assay type: functional, cell-based; settings: MDA-MB-231, 48 h
[11] = Toxicity in zebrafish assessed as induction of teratogenic developmental toxicity at 10 uM; set-up: species or system Danio rerio; settings: in vivo
MDA-MB-231 [12] = experiment: Cytotoxicity against human MDA-MB-231 cells assessed as reduction in cell viability at 2.5 to 10 uM measured after 48 hrs by WST-1 cell viability assay; assay type: cell-based; settings: mda-mb-231, 48 h
P2X purinoceptor 2 = molecular target: T8, P2X purinoceptor 2 (Homo sapiens, UniProt Q9UBL9); experiment: Antagonist activity at human P2X2 receptor expressed in human 1321N1 cells assessed as inhibition of ATP-induced calcium influx preincubated for 30 mins prior to ATP-stimulation by calcium influx assay; assay type: cell-based
T8 sequence (Q9UBL9 whole entry): T5 sequence (whole entry)

[13] = molecular target: T7, P2X purinoceptor 4 (Homo sapiens); experiment: Antagonist activity at human P2X4 receptor expressed in human 1321N1 cells assessed as inhibition of ATP-induced calcium influx at 10 uM preincubated for 30 mins prior to ATP-stimulation by calcium influx assay; assay type: cell-based
P2X purinoceptor 7 [14] = molecular target: T3, P2X purinoceptor 7; experiment: Antagonist activity at human P2X7 receptor
P2X purinoceptor 1 = molecular target: T9, P2X purinoceptor 1 (Rattus norvegicus, UniProt P47824); experiment: Antagonist activity at P2X1 receptor in rat vas deferens assessed as inhibition of alpha/beta-meATP-induced calcium influx
T9 sequence (P47824 whole entry): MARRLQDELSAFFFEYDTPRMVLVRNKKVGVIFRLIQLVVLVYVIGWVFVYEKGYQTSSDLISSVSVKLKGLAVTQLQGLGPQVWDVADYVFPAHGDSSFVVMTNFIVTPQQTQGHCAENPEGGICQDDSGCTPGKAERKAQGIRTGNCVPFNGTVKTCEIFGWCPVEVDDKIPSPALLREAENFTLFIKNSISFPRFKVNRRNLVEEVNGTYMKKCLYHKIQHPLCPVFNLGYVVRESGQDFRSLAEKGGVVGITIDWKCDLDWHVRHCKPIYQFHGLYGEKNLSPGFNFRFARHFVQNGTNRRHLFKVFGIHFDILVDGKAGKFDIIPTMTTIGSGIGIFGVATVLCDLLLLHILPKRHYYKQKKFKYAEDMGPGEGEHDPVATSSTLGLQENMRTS

MDA-MB-231 [15] = experiment: Cytotoxicity against human MDA-MB-231 cells assessed as reduction in cell viability at 10 uM measured after 48 hrs by WST-1 cell viability assay; assay type: cell-based; settings: mda-mb-231, 48 h

Row | Structure (SMILES) | IC50 (P2X purinoceptor 3 [1]) | IC50 (P2X purinoceptor 7 [3]) | IC50 (P2X purinoceptor 7 [4]) | inhibition [5] | inhibition [6] | inhibition [8] | inhibition (MDA-MB-231 [9]) | Ratio IC50 (Homo sapiens) | IC50 (MDA-MB-231 [10]) | Activity [11] | other results
1 | O=C(Nc1cc(C(=O)Nc2ccc(S(=O)(=O)O)cc2)cc(C(=O)Nc2ccc(S(=O)(=O)O)cc2)c1)Nc1cc(C(=O)Nc2ccc(S(=O)(=O)O)cc2)cc(C(=O)Nc2ccc(S(=O)(=O)O)cc2)c1 | 1580 nM |  |  |  |  |  |  |  |  |  | IC50 (P2X purinoceptor 3 [2]): 527 nM
2 | CS(=O)(=O)c1ccc(C(=O)N2CCC(c3nc4cc(OS(=O)(=O)c5cccc6cnccc56)ccc4[nH]3)CC2)cc1 |  | 7 nM | 43 nM | 16% | 7% | 15% | inactive |  |  |  | inhibition [7]: 3%
3 | CN(C)c1ccc(C(=O)N2CCN(c3cc(=O)[nH]c(=O)n3Cc3ccc(OS(=O)(=O)c4cccc5cnccc45)cc3)CC2)cc1 | 2660 nM | 1.53 nM | 1.33 nM | 23% | 2% | 6% | Active | 1000 to 7000 | 2.59 µM | Non-Toxic | Activity (MDA-MB-231 [12]): Non-Toxic
4 | Nc1c(S(=O)(=O)O)cc(Nc2ccc(S(=O)(=O)O)c(Nc3nc(Cl)nc(Cl)n3)c2)c2c1C(=O)c1ccccc1C2=O |  |  |  |  |  |  |  |  |  |  | IC50 (P2X purinoceptor 2): 692 nM; inhibition [13]: 3%
5 | O=C1NC(=O)N(C2CCN(C(=O)c3ccc(Cl)c(C(F)(F)F)c3)CC2)C1Cc1ccc(OS(=O)(=O)c2cccc3cnccc23)cc1 (stereo not given) | 600 nM |  | 54 nM | 28% | 5% | 0% |  |  |  |  | 
6 | COc1ccc(CC(=O)NC(N/C(=N/C#N)Nc2cccc3ncccc23)C(C)(C)C)cc1OC (stereo not given) |  |  |  |  |  |  |  |  |  |  | IC50 (P2X purinoceptor 7 [14]): 90 nM
7 | Cc1ccc(C(=O)Nc2ccc(S(=O)(=O)O)c3cc(S(=O)(=O)O)cc(S(=O)(=O)O)c23)cc1NC(=O)c1cccc(NC(=O)Nc2cccc(C(=O)Nc3cc(C(=O)Nc4ccc(S(=O)(=O)O)c5cc(S(=O)(=O)O)cc(S(=O)(=O)O)c45)ccc3C)c2)c1 [SURAMIN] |  |  |  |  |  |  |  |  |  |  | IC50 (P2X purinoceptor 1): 4.68 µM
8 | O=C(NCC12CC3CC(CC(C3)C1)C2)c1cc(CCCNCCCO)ccc1Cl |  |  | 0.06 nM |  |  |  | Active |  | 8.7 µM |  | IC50 (P2X purinoceptor 7 [14]): 10 to 13 nM
9 | CN(C)c1ccc(C(=O)N2CCC(n3cncc3-c3ccc(OS(=O)(=O)c4cccc(C(=O)NC5CC5)c4)cc3)CC2)cc1 | 910 nM | 0.49 nM | 1.03 nM | 22% | 7% | 7% | Active | 1000 to 7000 | 3.63 µM | Non-Toxic | Activity (MDA-MB-231 [12]): Non-Toxic
10 | CN(C)c1ccc(C(=O)N2CCC(n3cncc3-c3ccc(OS(=O)(=O)c4cccc5cnccc45)cc3)CC2)cc1 | 800 nM | 0.11 nM | 2.19 nM | 26% | 11% | 15% | Active | 1000 to 7000 | 2.68 µM | Non-Toxic | Activity (MDA-MB-231 [15]): 71%
